Data from the supplement of paper PMC10307832.

Key:
Assay in all cases: relative viability (nuclei count vs DMSO), 5 days (fraction); higher = more cells survive
[1] = tested on: NCI-H1395
Outline: (§1)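 Relative viability divides the nuclei count in treated wells by that in vehicle wells. Lung cancer cell lines were seeded in 1536-well plates, dosed by pin tool the next day, and fixed and stained after 5 days in one step with final 0.05% Triton X-100, 1% formaldehyde and 1 ug/ml Hoechst. Dosing was a single drug or a fixed anchor-drug dose plus five library-drug doses (not always all listed) in √10 steps, and values are medians of duplicate plates imaged at 4×.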

[2] = tested on: NCI-H1915
Outline: as §1

[3] = tested on: NCI-H1650
Outline: as §1

[4] = tested on: 201T
Outline: as §1

[5] = tested on: NCI-H322M
Outline: as §1

[6] = tested on: SW 900
Outline: as §1

[7] = tested on: HCC-15
Outline: as §1

[8] = tested on: NCI-H1651
Outline: as §1

[9] = tested on: HCC-827
Outline: as §1

[10] = tested on: EKVX
Outline: as §1

[11] = tested on: EPLC-272H
Outline: as §1

[12] = tested on: H3255
Outline: as §1

[13] = tested on: NCI-H2023
Outline: as §1

[14] = tested on: NCI-H460
Outline: as §1

[15] = tested on: NCI-H1648
Outline: as §1

[16] = tested on: LCLC-97TM1
Outline: as §1

[17] = tested on: NCI-H1792
Outline: as §1

[18] = tested on: NCI-H596
Outline: as §1

[19] = tested on: NCI-H647
Outline: as §1

[20] = tested on: COR-L23
Outline: as §1

[21] = tested on: SK-MES-1
Outline: as §1

[22] = tested on: NCI-H520
Outline: as §1

[23] = tested on: NCI-H358
Outline: as §1

[24] = tested on: COR-L 105
Outline: as §1

C=C1C(=O)O[C@@H](CCCCCCCC)[C@@H]1C(=O)O [C-75] + Nc1nc2[nH]cc(CCc3ccc(C(=O)N[C@@H](CCC(=O)O)C(=O)O)cc3)c2c(=O)[nH]1 [Pemetrexed] (partner 0.2 µM)
relative viability ([1]; first compound 0.08 µM): 0.881 | relative viability ([1]; first compound 0.253 µM): 0.807 | relative viability ([1]; first compound 2.53 µM): 0.758 | relative viability ([1]; first compound 8 µM): 0.914 | relative viability ([2]; first compound 0.08 µM): 0.471 | relative viability ([2]; first compound 0.253 µM): 0.475 | relative viability ([2]; first compound 0.8 µM): 0.483 | relative viability ([2]; first compound 2.53 µM): 0.448 | relative viability ([2]; first compound 8 µM): 0.527 | relative viability ([3]; first compound 0.08 µM): 0.365 | relative viability ([3]; first compound 0.253 µM): 0.401 | relative viability ([3]; first compound 0.8 µM): 0.384 | relative viability ([3]; first compound 8 µM): 0.372 | relative viability ([4]; first compound 0.08 µM): 0.337 | relative viability ([4]; first compound 0.253 µM): 0.323 | relative viability ([4]; first compound 0.8 µM): 0.296 | relative viability ([4]; first compound 2.53 µM): 0.311 | relative viability ([4]; first compound 8 µM): 0.308 | relative viability ([5]; first compound 0.08 µM): 0.633 | relative viability ([5]; first compound 0.253 µM): 0.6 | relative viability ([5]; first compound 0.8 µM): 0.575 | relative viability ([5]; first compound 8 µM): 0.625 | relative viability ([6]; first compound 0.08 µM): 0.446 | relative viability ([6]; first compound 0.253 µM): 0.462 | relative viability ([6]; first compound 0.8 µM): 0.479 | relative viability ([6]; first compound 2.53 µM): 0.301 | relative viability ([6]; first compound 8 µM): 0.454 | relative viability ([7]; first compound 0.08 µM): 0.246 | relative viability ([7]; first compound 0.253 µM): 0.239 | relative viability ([7]; first compound 0.8 µM): 0.203 | relative viability ([7]; first compound 2.53 µM): 0.208 | relative viability ([7]; first compound 8 µM): 0.223 | relative viability ([8]; first compound 0.08 µM): 0.568 | relative viability ([8]; first compound 0.253 µM): 0.671 | relative viability ([8]; first compound 0.8 µM): 0.541 | relative viability ([8]; first compound 2.53 µM): 0.53 | relative viability ([8]; first compound 8 µM): 0.606 | relative viability ([9]; first compound 0.253 µM): 0.271 | relative viability ([9]; first compound 0.8 µM): 0.279 | relative viability ([9]; first compound 8 µM): 0.287 | relative viability ([10]; first compound 0.08 µM): 0.45 | relative viability ([10]; first compound 0.253 µM): 0.491 | relative viability ([10]; first compound 0.8 µM): 0.366 | relative viability ([10]; first compound 8 µM): 0.358 | relative viability ([11]; first compound 0.08 µM): 0.313 | relative viability ([11]; first compound 0.253 µM): 0.267 | relative viability ([11]; first compound 0.8 µM): 0.329 | relative viability ([11]; first compound 2.53 µM): 0.202 | relative viability ([11]; first compound 8 µM): 0.24 | relative viability ([12]; first compound 0.08 µM): 0.588 | relative viability ([12]; first compound 0.253 µM): 0.561 | relative viability ([12]; first compound 0.8 µM): 0.577 | relative viability ([12]; first compound 2.53 µM): 0.525 | relative viability ([12]; first compound 8 µM): 0.627 | relative viability ([13]; first compound 0.08 µM): 0.246 | relative viability ([13]; first compound 0.253 µM): 0.265 | relative viability ([13]; first compound 0.8 µM): 0.242 | relative viability ([13]; first compound 2.53 µM): 0.171 | relative viability ([13]; first compound 8 µM): 0.21 | relative viability ([14]; first compound 0.08 µM): 0.0548 | relative viability ([14]; first compound 0.253 µM): 0.0554 | relative viability ([14]; first compound 0.8 µM): 0.0669 | relative viability ([14]; first compound 2.53 µM): 0.0313 | relative viability ([14]; first compound 8 µM): 0.0571 | relative viability ([15]; first compound 0.08 µM): 0.731 | relative viability ([15]; first compound 0.253 µM): 1.01 | relative viability ([15]; first compound 0.8 µM): 0.681 | relative viability ([15]; first compound 8 µM): 0.606 | relative viability ([16]; first compound 0.08 µM): 0.197 | relative viability ([16]; first compound 0.253 µM): 0.195 | relative viability ([16]; first compound 0.8 µM): 0.177 | relative viability ([16]; first compound 2.53 µM): 0.129 | relative viability ([16]; first compound 8 µM): 0.145 | relative viability ([17]; first compound 0.08 µM): 0.816 | relative viability ([17]; first compound 0.253 µM): 0.92 | relative viability ([17]; first compound 0.8 µM): 0.882 | relative viability ([17]; first compound 2.53 µM): 0.481 | relative viability ([17]; first compound 8 µM): 0.678 | relative viability ([18]; first compound 0.08 µM): 0.503 | relative viability ([18]; first compound 0.253 µM): 0.432 | relative viability ([18]; first compound 0.8 µM): 0.461 | relative viability ([18]; first compound 2.53 µM): 0.47 | relative viability ([18]; first compound 8 µM): 0.481 | relative viability ([19]; first compound 0.08 µM): 0.181 | relative viability ([19]; first compound 0.253 µM): 0.186 | relative viability ([19]; first compound 0.8 µM): 0.167 | relative viability ([19]; first compound 2.53 µM): 0.171 | relative viability ([19]; first compound 8 µM): 0.128 | relative viability ([20]; first compound 0.08 µM): 0.197 | relative viability ([20]; first compound 0.253 µM): 0.197 | relative viability ([20]; first compound 0.8 µM): 0.2 | relative viability ([20]; first compound 2.53 µM): 0.2 | relative viability ([20]; first compound 8 µM): 0.198 | relative viability ([21]; first compound 0.08 µM): 0.97 | relative viability ([21]; first compound 0.253 µM): 0.911 | relative viability ([21]; first compound 0.8 µM): 0.839 | relative viability ([21]; first compound 2.53 µM): 0.766 | relative viability ([21]; first compound 8 µM): 0.919 | relative viability ([22]; first compound 0.08 µM): 0.62 | relative viability ([22]; first compound 0.253 µM): 0.669 | relative viability ([22]; first compound 0.8 µM): 0.643 | relative viability ([22]; first compound 2.53 µM): 0.578 | relative viability ([22]; first compound 8 µM): 0.55 | relative viability ([23]; first compound 0.08 µM): 0.169 | relative viability ([23]; first compound 0.253 µM): 0.185 | relative viability ([23]; first compound 0.8 µM): 0.168 | relative viability ([23]; first compound 8 µM): 0.189 | relative viability ([24]; first compound 0.08 µM): 1.14 | relative viability ([24]; first compound 0.253 µM): 1.07 | relative viability ([24]; first compound 0.8 µM): 1.07 | relative viability ([24]; first compound 2.53 µM): 1.24 | relative viability ([24]; first compound 8 µM): 0.96
